± gives the standard deviation of the reports.
SMILES	glass transition temperature [°C]
*C[Si](*)(C)CCCn1c2ccccc2c2ccccc21 (repeat unit)	71.20
*CCC(C)Oc1ccc(-c2ccc(C(=O)OCC(C)COC(=O)c3ccc(-c4ccc(O*)cc4)cc3)cc2)cc1 (repeat unit)	84.00
*/C=C/c1cccc(OC(=O)CCCCCCCCC(=O)Oc2cccc(-c3nnc(*)s3)c2)c1 (repeat unit)	41.00
*c1ccc2c(c1)C(=O)N(c1cc(N3C(=O)c4ccc(C(*)(C(F)(F)F)C(F)(F)F)cc4C3=O)ccc1OCCCCCCOc1ccc(/N=N/c3ccc(OCC)cc3)cc1)C2=O (repeat unit)	198.00
*CCCCCCCCCCCCCCCCCCNC(=O)CCCCCCCCCCCCCCCCC(=O)N* (repeat unit)	50.00
*Oc1c(C)cc(*)cc1C(C)CCC (repeat unit)	100.00
*CCc1ccc(*)c(Br)c1 (repeat unit)	80.00
*/C(=N\c1ccccc1)c1ccc(-c2ccc(*)cc2)cc1 (repeat unit)	225.00
*Oc1ccc(C(c2ccccc2)(c2ccccc2)c2ccc(OC(*)=O)cc2)cc1 (repeat unit)	213.00
*O[Si](*)(C)CCCCCCCCCCC(=O)Oc1ccc2cc(C(=O)OC3CCC4(C)C(=CCC5C4CCC4(C)C(C(C)CCCC(C)C)CCC54)C3)ccc2c1 (repeat unit)	27.00
*CC(F)(F)/C(F)=C(/*)Cl (repeat unit)	-17.00
*CC(*)(F)C(=O)OCCC (repeat unit)	62.00
*Oc1ccc(C(c2ccc(OC(=O)c3ccc(Oc4ccc(C(*)=O)cc4)cc3)cc2)(C(F)(F)F)C(F)(F)F)cc1 (repeat unit)	181.00
*CC(*)c1ccc(C(F)(F)C(F)(F)C(F)(F)C(F)(F)C(F)(F)C(F)(F)C(F)(F)F)cc1 (repeat unit)	42.00
*O[Si](C)(C)c1cccc([Si](*)(C)C)c1 (repeat unit)	-48.00
*Oc1ccc(C(C)(C)c2ccc(OC(=O)c3ccc(Cc4ccc(C(*)=O)cc4)cc3)cc2)cc1 (repeat unit)	205.00
*CC(CO*)(CSCCCCC)CSCCCCC (repeat unit)	-33.00
*c1ccc(C(=O)c2ccc(N3C(=O)c4ccc(Oc5ccc(Oc6ccc7c(c6)C(=O)N(*)C7=O)cc5)cc4C3=O)cc2)cc1 (repeat unit)	268.00

SMILES	glass transition temperature [°C]
*Nc1ccc(NC(=O)c2cc(-c3ccc(C(=O)OCC)c(C(*)=O)c3)ccc2C(=O)OCC)cc1 (repeat unit)	231.70
*CCCCCCCCc1nc2cc(NC(=O)CCCCC(=O)Nc3ccc4oc(*)nc4c3)ccc2o1 (repeat unit)	92.00
*CCCCCCNC(=O)c1ccc(C(=O)N*)c(Oc2ccccc2)c1 (repeat unit)	108.00
*c1ccc2c(c1)C(=O)N(c1ccc(Oc3c(C(C)(C)C)cc(-c4ccc(N5C(=O)c6ccc(C(*)(C(F)(F)F)C(F)(F)F)cc6C5=O)cc4)cc3C(C)(C)C)c(C(F)(F)F)c1)C2=O (repeat unit)	362.50
*CC(CCCCCCCCCCCC)COC(=O)NC(=O)c1ccc(C(=O)NC(=O)O*)cc1 (repeat unit)	75.00
*CCCCOCO* (repeat unit)	-84.00
*c1ccc2c(c1)C(=O)N(c1ccc(S(=O)(=O)c3ccc(S(=O)(=O)c4ccc(N5C(=O)c6ccc(C(*)(C(F)(F)F)C(F)(F)F)cc6C5=O)cc4)cc3)cc1)C2=O (repeat unit)	331.00
*Oc1ccc(Cc2ccc(OC(*)=S)cc2)cc1 (repeat unit)	95.00
*CCN(*)C(=O)c1cccc(F)c1 (repeat unit)	97.00
*c1cccc(N2C(=O)c3ccc(Oc4ccc(-c5ccc(Oc6ccc7c(c6)C(=O)N(*)C7=O)cc5)cc4)cc3C2=O)c1 (repeat unit)	247.00
*CCCC(C)(C)CCCNC(=O)c1ccc(C(=O)N*)cc1 (repeat unit)	152.00
*CCCCCCCCCCCCCCC(=O)O* (repeat unit) [poly(pentadecalactone)]	-24.62 ± 3.6
*CC(*)C(=O)Nc1cccc(Cl)c1 (repeat unit)	70.00
*C(=O)Nc1ccc(C2(c3ccc(N4C(=O)c5ccc(*)cc5C4=O)cc3)CC(C)CC(C)(C)C2)cc1 (repeat unit)	328.00
*C(=O)Oc1ccc(OC(=O)c2ccc3c(c2)C(=O)N(C2CCC(N4C(=O)c5ccc(*)cc5C4=O)CC2)C3=O)cc1 (repeat unit)	360.00
*CCCCCCOC(=O)OCCCOC(=O)OCCCCCCN1C(=O)c2ccc(C(=O)c3ccc4c(c3)C(=O)N(*)C4=O)cc2C1=O (repeat unit)	61.00
*Oc1ccc(-c2ccc(Oc3ccc(C(=O)c4ccc(C(=O)c5ccc(*)c(C(F)(F)F)c5)cc4)cc3C(F)(F)F)cc2)cc1 (repeat unit)	187.00

— the PolyMetriX glass transition set
